Test results reported in US12582641B2, “Sulfur-containing compound based on glutarimide skeleton and application thereof” (SHANGHAITECH UNIVERSITY, priority 2019, dated 2026).

Each molecule was assayed on MM.1S cells (assay: Proliferation inhibition (IC50) in MM.1S cells, cell viability assay). Conditions: Homo sapiens, MM1.S, 72 h, read-out: IC50 (nM), proliferation inhibitory activity of MM.1S cells (half inhibitory concentration).

| SMILES | IC50 [nM] |
| --- | --- |
| O=C1CCC(N2Cc3c(SCCCCCCCCO)cccc3C2=O)C(=O)N1 (centres unmarked) [SIAIS264006, 3-(4-((8-hydroxyoctyl)thio)-1-oxoisoindolin-2-yl)piperidine-2,6-dione] | 0.83 |
| O=C1CCC(N2Cc3c(SCCCCCCCCNc4ncnc5ccccc45)cccc3C2=O)C(=O)N1 (centres unmarked) [SIAIS264011, 3-(1-oxo-4-((8-(quinazolin-4-ylamino)octyl)thio)isoindolin-2-yl)piperidine-2,6-dione] | 0.34 |
| O=C1CCC(N2Cc3c(SCCCCCCCCN4CCCCC4=O)cccc3C2=O)C(=O)N1 (centres unmarked) [SIAIS264019, 3-(1-oxo-4-((8-(2-oxopiperidin-1-yl)octyl)thio)isoindolin-2-yl)piperidine-2,6-dione] | 0.13 |
| O=C1CCC(N2Cc3c(SCCCCCCCN4CCCCC4=O)cccc3C2=O)C(=O)N1 (centres unmarked) [SIAIS264042, 3-(1-oxo-4-((7-(2-oxopiperidin-1-yl)heptyl)thio)isoindolin-2-yl)piperidine-2,6-dione] | 0.051 |
| Cc1ccc(NC(=O)NCCSc2cccc3c2CN(C2CCC(=O)NC2=O)C3=O)cc1Cl (centres unmarked) [SIAIS269012, 1-(3-chloro-4-methylphenyl)-3-(2-((2-(2,6-dioxopiperidin-3-yl)-1-oxoisoindolin-4-yl)thio)ethyl)urea] | 3.79 |
| Cc1ccc(NC(=O)NCCCCCCCSc2cccc3c2CN(C2CCC(=O)NC2=O)C3=O)cc1Cl (centres unmarked) [SIAIS269068, 1-(3-chloro-4-methylphenyl)-3-(7-((2-(2,6-dioxopiperidin-3-yl)-1-oxoisoindolin-4-yl)thio)heptyl)urea] | 0.901 |
| Cc1ccc(NC(=O)NCCCCCCCCSc2cccc3c2CN(C2CCC(=O)NC2=O)C3=O)cc1Cl (centres unmarked) [SIAIS269072, 1-(3-chloro-4-methylphenyl)-3-(8-((2-(2,6-dioxopiperidin-3-yl)-1-oxoisoindolin-4-yl)thio)octyl)urea] | 0.468 |
| Cc1ccc(NC(=O)NCCCCSc2cccc3c2CN(C2CCC(=O)NC2=O)C3=O)cc1Cl (centres unmarked) [SIAIS269095, 1-(3-chloro-4-methylphenyl)-3-(4-((2-(2,6-dioxopiperidin-3-yl)-1-oxoisoindolin-4-yl)thio)butyl)urea] | 0.334 |
| O=C1CCC(N2Cc3c(SCCCCCCCOC4C5CC6CC(C5)CC4C6)cccc3C2=O)C(=O)N1 (centres unmarked) [SIAIS269159, 3-(4-((7-(adamantan-2-yloxy)heptyl)thio)-1-oxoisoindolin-2-yl)piperidine-2,6-dione] | 0.068 |
| O=C1CCC(N2Cc3cc(SCCCCCCCNC45CC6CC(CC(C6)C4)C5)ccc3C2=O)C(=O)N1 (centres unmarked) [SIAIS271167, 3-(5-((7-((adamantan-1-yl)amino)heptyl)thio)-1-oxoisoindolin-2-yl)piperidine-2,6-dione] | 164 |
| CN(CCCCNC(=O)CSc1cccc2c1CN(C1CCC(=O)NC1=O)C2=O)C12CC3CC(CC(C3)C1)C2 (centres unmarked) [SIAIS287105, N-(4-(adamantan-1-yl(methyl)amino)butyl)-2-((2-(2,6-dioxopiperidin-3-yl)-1-oxoisoindolin-4-yl)thio)acetamide] | 5.01 |
| O=C1CCC(N2Cc3c(SCc4ccc(CN5CCCCC5)o4)cccc3C2=O)C(=O)N1 (centres unmarked) [SIAIS313123, 3-(1-oxo-4-(((5-(piperidin-1-ylmethyl)furan-2-yl)methyl)thio)isoindolin-2-yl)piperidine-2,6-dione] | 2.29 ± 0.95 |
| O=C1CCC(N2Cc3c(SCc4ccc(CN5CCOCC5)o4)cccc3C2=O)C(=O)N1 (centres unmarked) [SIAIS313126, 3-(4-(((5-(morpholinomethyl)furan-2-yl)methyl)thio)-1-oxoisoindolin-2-yl)piperidine-2,6-dione] | 2.97 ± 0.79 |
| C[C@H](NCc1ccc(CSc2cccc3c2CN(C2CCC(=O)NC2=O)C3=O)o1)C1CC1 (stereo partly drawn) [SIAIS313129, 3-(4-(((5-((((S)-1-cyclopropylethyl)amino)methyl)furan-2-yl)methyl)thio)-1-oxoisoindolin-2-yl)piperidine-2,6-dione] | 0.97 ± 0.55 |
| O=C1CCC(N2Cc3c(SCc4ccc(CN5CCCCCC5)o4)cccc3C2=O)C(=O)N1 (centres unmarked) [SIAIS313135, 3-(4-(((5-(azepan-1-ylmethyl)furan-2-yl)methyl)thio)-1-oxoisoindolin-2-yl)piperidine-2,6-dione] | 2.62 ± 0.94 |
| O=C1CCC(N2Cc3c(SCc4ccc(CNC5CCCC5)o4)cccc3C2=O)C(=O)N1 (centres unmarked) [SIAIS313148, 3-(4-(((5-((cyclopentylamino)methyl)furan-2-yl)methyl)thio)-1-oxoisoindolin-2-yl)piperidine-2,6-dione] | 0.95 ± 0.45 |
| O=C1CCC(N2Cc3c(SCc4ccc(CNCC5CCCCO5)o4)cccc3C2=O)C(=O)N1 (centres unmarked) [SIAIS313149, 3-(1-oxo-4-(((5-((((tetrahydro-2H-pyran-2-yl)methyl)amino)methyl)furan-2-yl)methyl)thio)isoindolin-2-yl)piperidine-2,6-dione] | 1.3 ± 0.96 |
| O=C1CCC(N2Cc3c(SCc4ccc(CNC(C5CC5)C5CC5)o4)cccc3C2=O)C(=O)N1 (centres unmarked) [SIAIS313150, 3-(4-(((5-(((dicyclopropylmethyl)amino)methyl)furan-2-yl)methyl)thio)-1-oxoisoindolin-2-yl)piperidine-2,6-dione] | 0.7 ± 0.27 |
| O=C1CCC(N2Cc3c(SCc4csc(CN5CCOCC5)n4)cccc3C2=O)C(=O)N1 (centres unmarked) [SIAIS313163, 3-(4-(((2-(morpholinomethyl)thiazol-4-yl)methyl)thio)-1-oxoisoindolin-2-yl)piperidine-2,6-dione] | 9.38 ± 1.37 |

| SMILES | IC50 [nM] |
| --- | --- |
| O=C1CCC(N2Cc3c(SCc4csc(CN5CCCCC5)n4)cccc3C2=O)C(=O)N1 (centres unmarked) [SIAIS313164, 3-(1-oxo-4-(((2-(piperidin-1-ylmethyl)thiazol-4-yl)methyl)thio)isoindolin-2-yl)piperidine-2,6-dione] | 2.78 ± 0.73 |
| O=C1CCC(N2Cc3c(SCc4csc(CN5CCCCCC5)n4)cccc3C2=O)C(=O)N1 (centres unmarked) [SIAIS313165, 3-(4-(((2-(azepan-1-ylmethyl)thiazol-4-yl)methyl)thio)-1-oxoisoindolin-2-yl)piperidine-2,6-dione] | 2.77 ± 1.12 |
| O=C1CCC(N2Cc3c(SCc4csc(CNC5CCCC5)n4)cccc3C2=O)C(=O)N1 (centres unmarked) [SIAIS313166, 3-(4-(((2-((cyclopentylamino)methyl)thiazol-4-yl)methyl)thio)-1-oxoisoindolin-2-yl)piperidine-2,6-dione] | 7.55 ± 1.89 |
| O=C1CCC(N2Cc3c(SCc4nc(CN5CCOCC5)cs4)cccc3C2=O)C(=O)N1 (centres unmarked) [SIAIS313169, 3-(4-(((4-(morpholinomethyl)thiazol-2-yl)methyl)thio)-1-oxoisoindolin-2-yl)piperidine-2,6-dione] | 5.03 ± 2.13 |
| O=C1CCC(N2Cc3c(SCc4nc(CN5CCCCC5)cs4)cccc3C2=O)C(=O)N1 (centres unmarked) [SIAIS313170, 3-(1-oxo-4-(((4-(piperidin-1-ylmethyl)thiazol-2-yl)methyl)thio)isoindolin-2-yl)piperidine-2,6-dione] | 2.56 ± 0.56 |
| O=C1CCC(N2Cc3c(SCc4nc(CN5CCCCCC5)cs4)cccc3C2=O)C(=O)N1 (centres unmarked) [SIAIS313171, 3-(4-(((4-(azepan-1-ylmethyl)thiazol-2-yl)methyl)thio)-1-oxoisoindolin-2-yl)piperidine-2,6-dione] | 1.34 ± 0.32 |
| CC1CC(C)CN(Cc2csc(CSc3cccc4c3CN(C3CCC(=O)NC3=O)C4=O)n2)C1 (centres unmarked) [SIAIS313186, 3-(4-(((4-((3,5-dimethylpiperidin-1-yl)methyl)thiazol-2-yl)methyl)thio)-1-oxoisoindolin-2-yl)piperidine-2,6-dione] | 1.63 ± 0.61 |
| O=C1CCC(N2Cc3c(SCc4nc(CN5CC6CCCCC6C5)cs4)cccc3C2=O)C(=O)N1 (centres unmarked) [SIAIS313188, 3-(4-(((4-((hexahydro-1H-isoindol-2(3H)-yl)methyl)thiazol-2-yl)methyl)thio)-1-oxoisoindolin-2-yl)piperidine-2,6-dione] | 1.43 ± 0.3 |
| O=C1CCC(N2Cc3c(SCc4nc(CN5CCSCC5)cs4)cccc3C2=O)C(=O)N1 (centres unmarked) [SIAIS355001, 3-(1-oxo-4-(((4-(thiomorpholinomethyl)thiazol-2-yl)methyl)thio)isoindolin-2-yl)piperidine-2,6-dione] | 2.51 ± 0.54 |
| CCN(CC)Cc1csc(CSc2cccc3c2CN(C2CCC(=O)NC2=O)C3=O)n1 (centres unmarked) [SIAIS355002, 3-(4-(((4-((diethylamino)methyl)thiazol-2-yl)methyl)thio)-1-oxoisoindolin-2-yl)piperidine-2,6-dione] | 1.07 ± 0.39 |
| O=C1CCC(N2Cc3c(SCc4nc(CNC5CCCCC5)cs4)cccc3C2=O)C(=O)N1 (centres unmarked) [SIAIS355003, 3-(4-(((4-((cyclohexylamino)methyl)thiazol-2-yl)methyl)thio)-1-oxoisoindolin-2-yl)piperidine-2,6-dione] | 0.75 ± 0.1 |
| O=C1CCC(N2Cc3c(SCc4nc(CNCC5CCCCC5)cs4)cccc3C2=O)C(=O)N1 (centres unmarked) [SIAIS355004, 3-(4-(((4-(((cyclohexylmethyl)amino)methyl)thiazol-2-yl)methyl)thio)-1-oxoisoindolin-2-yl)piperidine-2,6-dione] | 0.61 ± 0.42 |
| CSc1cccc2c1CN(C1CCC(=O)NC1=O)C2=O (centres unmarked) [SIAIS1210071, 3-(4-(methylthio)-1-oxoisoindolin-2-yl)piperidine-2,6-dione] | 3.37 ± 0.48 |
| CCCCCSc1cccc2c1CN(C1CCC(=O)NC1=O)C2=O (centres unmarked) [SIAIS1213195, 3-(1-oxo-4-(pentylthio)isoindolin-2-yl)piperidine-2,6-dione] | 1.48 ± 0.06 |
| CCCCCCCCSc1cccc2c1CN(C1CCC(=O)NC1=O)C2=O (centres unmarked) [SIAIS1216025, 3-(4-(octylthio)-1-oxoisoindolin-2-yl)piperidine-2,6-dione] | 2.1 ± 0.67 |
| O=C1CCC(N2Cc3c(SCCCCCN4CCOCC4)cccc3C2=O)C(=O)N1 (centres unmarked) [SIAIS1216061, 3-(4-((5-morpholinopentyl)thio)-1-oxoisoindolin-2-yl)piperidine-2,6-dione] | 2.52 ± 0.22 |
| O=C1CCC(N2Cc3c(SCCCCCN4CCNCC4)cccc3C2=O)C(=O)N1 (centres unmarked) [SIAIS1216063, 3-(1-oxo-4-((5-(piperazin-1-yl)pentyl)thio)isoindolin-2-yl)piperidine-2,6-dione] | 8.58 ± 2.58 |
| CN(C)CCCCCSc1cccc2c1CN(C1CCC(=O)NC1=O)C2=O (centres unmarked) [SIAIS1216089, 3-(4-((5-(dimethylamino)pentyl)thio)-1-oxoisoindolin-2-yl)piperidine-2,6-dione] | 2.83 ± 0.76 |
| CC(=O)NCCCCCSc1cccc2c1CN(C1CCC(=O)NC1=O)C2=O (centres unmarked) [SIAIS1216095, N-(5-((2-(2,6-dioxopiperidin-3-yl)-1-oxoisoindolin-4-yl)thio)pentyl)acetamide] | 1.53 ± 0.4 |
